# Reference: PubChem BioAssay AID1845209 (Molecular Pharmacology Branch, DTP, NCI, 2023)
# System: NCI-H211 tumor spheroids, viability percent test/control
# Experiment: Anticancer human tumor NCI-H211 cell line growth inhibition;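 further: spheroids exposed to agents for seven days before readout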
# Settings: spheroids with HUVEC and MSC; for IC50: curve of first compound; for viability, T/C: stronger effect = lower value
# Summary of the method: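 Single agents and combinations were tested on spheroids built from tumor cells plus HUVEC and hMSC, at half-log dilutions starting at or near clinical Cmax, else 10 microM; final DMSO 0.25% (v/v).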
smiles,measurement,setting,value
CNCc1ccc(-c2cc(-c3nc(-c4ccc(S(=O)(=O)C(C)C)cc4)cnc3N)on2)cc1 + Cn1nnc2c(C(N)=O)ncn2c1=O,IC50,second compound 1 µM,0.0115 µM
same,IC50,second compound 3.16 µM,0.0197 µM
same,IC50,second compound 10 µM,0.0168 µM
same,IC50,second compound 31.6 µM,< 0.00949 µM
same,IC50,second compound 100 µM,< 0.00949 µM
same,"viability, T/C","second compound 1 µM, first compound 0.00949 µM",53%
same,"viability, T/C","second compound 1 µM, first compound 0.03 µM",35.3%
same,"viability, T/C","second compound 1 µM, first compound 0.0949 µM",6.53%
same,"viability, T/C","second compound 1 µM, first compound 0.3 µM",1.07%
same,"viability, T/C","second compound 1 µM, first compound 0.949 µM",0.07%
same,"viability, T/C","second compound 1 µM, first compound 3 µM",0.11%
same,"viability, T/C","second compound 3.16 µM, first compound 0.00949 µM",71%
same,"viability, T/C","second compound 3.16 µM, first compound 0.03 µM",37.9%
same,"viability, T/C","second compound 3.16 µM, first compound 0.0949 µM",7.5%
same,"viability, T/C","second compound 3.16 µM, first compound 0.3 µM",0.64%
same,"viability, T/C","second compound 3.16 µM, first compound 0.949 µM",0.13%
same,"viability, T/C","second compound 3.16 µM, first compound 3 µM",0.1%
same,"viability, T/C","second compound 10 µM, first compound 0.00949 µM",66.9%
same,"viability, T/C","second compound 10 µM, first compound 0.03 µM",32.9%
same,"viability, T/C","second compound 10 µM, first compound 0.0949 µM",6.3%
same,"viability, T/C","second compound 10 µM, first compound 0.3 µM",0.72%
same,"viability, T/C","second compound 10 µM, first compound 0.949 µM",0.13%
same,"viability, T/C","second compound 10 µM, first compound 3 µM",0.13%
same,"viability, T/C","second compound 31.6 µM, first compound 0.00949 µM",34%
same,"viability, T/C","second compound 31.6 µM, first compound 0.03 µM",9.23%
same,"viability, T/C","second compound 31.6 µM, first compound 0.0949 µM",2.14%
same,"viability, T/C","second compound 31.6 µM, first compound 0.3 µM",1.16%
same,"viability, T/C","second compound 31.6 µM, first compound 0.949 µM",0.14%
same,"viability, T/C","second compound 31.6 µM, first compound 3 µM",0.14%
same,"viability, T/C","second compound 100 µM, first compound 0.00949 µM",11%
same,"viability, T/C","second compound 100 µM, first compound 0.03 µM",2.34%
same,"viability, T/C","second compound 100 µM, first compound 0.0949 µM",1.63%
same,"viability, T/C","second compound 100 µM, first compound 0.3 µM",1.21%
same,"viability, T/C","second compound 100 µM, first compound 0.949 µM",0.17%
same,"viability, T/C","second compound 100 µM, first compound 3 µM",0.23%
Cc1cc(C)c(CNC(=O)c2cc(-c3ccc(CN4CCOCC4)cc3)cc3c2cnn3C2CCCC2)c(=O)[nH]1 + Cn1nnc2c(C(N)=O)ncn2c1=O,IC50,second compound 1 µM,5.6 µM
same,IC50,second compound 3.16 µM,8.08 µM
same,IC50,second compound 10 µM,2.06 µM
same,IC50,second compound 31.6 µM,0.081 µM
same,IC50,second compound 100 µM,< 0.0316 µM
same,"viability, T/C","second compound 1 µM, first compound 0.0316 µM",92.3%
same,"viability, T/C","second compound 1 µM, first compound 0.1 µM",81.4%
same,"viability, T/C","second compound 1 µM, first compound 0.316 µM",70%
same,"viability, T/C","second compound 1 µM, first compound 1 µM",70.6%
same,"viability, T/C","second compound 1 µM, first compound 3.16 µM",72.7%
same,"viability, T/C","second compound 1 µM, first compound 10 µM",32.3%
same,"viability, T/C","second compound 3.16 µM, first compound 0.0316 µM",95.3%
same,"viability, T/C","second compound 3.16 µM, first compound 0.1 µM",94.7%
same,"viability, T/C","second compound 3.16 µM, first compound 0.316 µM",84%
same,"viability, T/C","second compound 3.16 µM, first compound 1 µM",86.7%
same,"viability, T/C","second compound 3.16 µM, first compound 3.16 µM",71.3%
same,"viability, T/C","second compound 3.16 µM, first compound 10 µM",45%
same,"viability, T/C","second compound 10 µM, first compound 0.0316 µM",95.4%
same,"viability, T/C","second compound 10 µM, first compound 0.1 µM",93.2%
same,"viability, T/C","second compound 10 µM, first compound 0.316 µM",66.7%
same,"viability, T/C","second compound 10 µM, first compound 1 µM",68.7%
same,"viability, T/C","second compound 10 µM, first compound 3.16 µM",37.9%
same,"viability, T/C","second compound 10 µM, first compound 10 µM",36.8%
same,"viability, T/C","second compound 31.6 µM, first compound 0.0316 µM",58.4%
same,"viability, T/C","second compound 31.6 µM, first compound 0.1 µM",47.4%
same,"viability, T/C","second compound 31.6 µM, first compound 0.316 µM",35.1%
same,"viability, T/C","second compound 31.6 µM, first compound 1 µM",33.7%
same,"viability, T/C","second compound 31.6 µM, first compound 3.16 µM",10.6%
same,"viability, T/C","second compound 31.6 µM, first compound 10 µM",19.9%
same,"viability, T/C","second compound 100 µM, first compound 0.0316 µM",33.6%
same,"viability, T/C","second compound 100 µM, first compound 0.1 µM",21.7%
same,"viability, T/C","second compound 100 µM, first compound 0.316 µM",18.9%
same,"viability, T/C","second compound 100 µM, first compound 1 µM",16.3%
same,"viability, T/C","second compound 100 µM, first compound 3.16 µM",10.4%
same,"viability, T/C","second compound 100 µM, first compound 10 µM",7.54%
